Here are results for twelve molecules from patent publication US8865901B2, “Gain-of-function Bcl-2 inhibitors” (priority 2009, dated 2014).

Read-outs that look alike come from different tables or passages of the source. Where only a bound is given, the exact number is not on record here.

One data set has as its system Colo205 cells. Briefly: Mouse colon carcinoma xenograft model. The conditions noted are these: daily intraperitoneal administration, single agent; FIG. 4. The data set is classed as in vivo, NOD/Les2 SCID/J mice. The procedure: The ability of the experimental compounds to inhibit tumor growth in a body was tested in a mouse colon carcinoma xenograft model.
Six to nine-week old NOD/Les2 SCID/J mice were inoculated with 3×10^7 Colo205 cells by interscapular subcutaneous injection. Mice were maintained under specific pathogen-free conditions. Palpable tumor nodules were measured in two dimensions with calipers and tumor volumes calculated in mm3 as (length×width^2)/2. Blood samples were collected by retro-orbital bleed for human light chain measurements by ELISA using lambda-specific antibody (BD Biosciences). Animals were sacrificed by halothane inhalation, and histologic examination of the tumors and internal organs was performed. All experiments were approved by the FHCRC Institutional Animal Care and Use Committee.
Animals were treated by daily intraperitoneal administration of Compound 0511 (see structure above in Example 2).
Six to nine-week old NOD/Les2 SCID/J mice were inoculated with 3×10^7 Colo205 cells by interscapular subcutaneous injection. Mice were maintained under specific pathogen-free conditions. Palpable tumor nodules were measured in two dimensions with calipers and tumor volumes calculated in mm3 as (length×width^2)/2. Blood samples were collected by retro-orbital bleed for human light chain measurements by ELISA using lambda-specific antibody (BD Biosciences). […]

The test system of data set [1] is OVCAR-3, an ovarian tumor. Briefly: Apoptosis induction against solid tumors in vitro, OVCAR-3. The data set is classed as cell-based. The procedure:
(§1) The ability of compounds from Example 2 to induce apoptosis against solid tumors in vitro was tested. Four solid tumors were tested: OVCAR-3, an ovarian tumor; COLO205, a colonic tumor; HOP-62 and H23, both NSCLC tumors. The experimental compounds were compared to 2MeAA and to ABT-737, a clinical stage compound owned by Abbott Pharma.
(§2) The ability of compounds of Example 8 to induce apoptosis against solid tumors in vitro was tested. Four solid tumors were tested: OVCAR-3, an ovarian tumor; COLO205, a colonic tumor; HOP-62 and H23, both NSCLC tumors. The experimental compounds, […]

The subject of another data set is COLO205, a colonic tumor. Briefly: Apoptosis induction against solid tumors in vitro, COLO205. The data set is classed as cell-based. The procedure:
as §1, §2

A further data set concerns HOP-62, NSCLC tumor. Kind of data set: Apoptosis induction against solid tumors in vitro, HOP-62. The data set is classed as cell-based. The procedure:
as §1, §2

The subject of the next data set is H23, NSCLC tumor. Kind of data set: Apoptosis induction against solid tumors in vitro, H23. The data set is classed as cell-based. The procedure: as §1, §2
Data set [2] has as its system TAMH cells overexpressing Bcl-xL (TAMH-Bcl-xL, Tabx2s). Kind of data set: Cytotoxicity / apoptosis induction in TAMH cells overexpressing Bcl-xL. The data set is classed as cell-based. The conditions noted are these: for Neo:Bcl: ratio Neo to Bcl-xL cells. The procedure: (§3) To examine the sensitivity of cells over-expressing Bcl-xL to various mitochondrial inhibitors and apoptosis inducers, cell lines over-expressing Bcl-xL were prepared and tested according to Hockenberry et al. U.S. Pat. No. 7,241,804, hereby incorporated by reference in its entirety. Competitive binding of compounds with fluorescent antimycin A3, and competitive binding of compounds with BH3 peptide and Bcl-2. Competitive binding of compounds with BH-3 peptide were also measured using Bcl-xL as previously described. Id.
(§4) Cell lines were grown in RPMI 1640 medium (Gibco, Grand Island, N.Y.) supplemented with 5% fetal bovine serum (Hyclone, Logan, Utah). Also shown is the ratio of TAMH cells expressing Bcl-xL to those expressing A142L (WT:142L). The assay measures the potency of various compounds with respect to inducing apoptosis in these cells.
(§5) The compounds described in Example 2 were tested for their ability to inhibit Bcl-2 gain-of-function in TAMH cells, TAMH cells overexpressing […] (TAMH-Bcl-xL), TAMH cells transfected with Neo vector (Neo), TAMH cells over expressing a variant of Bcl-xL (A142L) using the methods of Example 1. 3-6.
(§6) The effects of the compounds described in Example 8 on TAMH cells, TAMH cells overexpressing Bcl-xL (TAMH-Bcl-xL), TAMH cells transfected with Neo vector (Neo), TAMH cells over expressing a variant of Bcl-xL (A142L) is shown in Table 8
(§7) The effects of the compounds described in Example 10 on TAMH cells, TAMH cells overexpressing Bcl-xL (TAMH-Bcl-xL), TAMH cells transfected with Neo vector (Neo), TAMH cells over expressing a variant of Bcl-xL (A142L) is shown in the following Table 10

Data set [3] concerns TAMH cells transfected with Neo vector (Neo). Kind of data set: Cytotoxicity / apoptosis induction in TAMH cells transfected with Neo vector. The data set is classed as cell-based. The following applies: TAMH Neo cells. The procedure:
as §3, §4, §5, §6, §7

Data set [4] deals with TAMH cells over expressing a variant of Bcl-xL (A142L). Kind of data set: Cytotoxicity / apoptosis induction in TAMH cells over expressing Bcl-xL variant A142L. The data set is classed as cell-based. The following applies: Table 4; for EC50: TAMH A142L cells; for WT:142L: ratio of TAMH cells expressing Bcl-xL to those expressing A142L. How it is done:
as §3, §4, §5

In data set [5] the test system is CFPAC-1, HPAF-II MIA PaCa, PaTu-1, PaTu-8988t, ASPC-1, FA-6, and PANC-1 cell lines. Kind of data set: EC50 in a panel of pancreatic cell lines. The data set is classed as cell-based. The conditions noted are these: Homo sapiens; every pancreatic cell line of the panel, but for HPAF-II; FIG. 1. The procedure: The EC50 for the Compound 0216 (see structure above) was determined in a panel of pancreatic cell lines.
The panel included CFPAC-1, HPAF-II MIA PaCa, PaTu-1, PaTu-8988t, ASPC-1, FA-6, and PANC-1 cell lines. Pancreatic cancer samples were obtained from patients, with appropriate patient consent and approval of the Fred Hutchinson Cancer Research Center Institutional Review Board. Primary cells were maintained in Iscove's medium supplemented with 10% bovine calf serum, 100 ng·ml^−1 stem cell factor, and 50 ng·ml^−1 interleukin-3.
The EC50 values were measured with compound 216. […] This means that this molecule has a broad ability to induce apoptosis in a wide variety of pancreatic cancers.
The panel included CFPAC-1, HPAF-II MIA PaCa, PaTu-1, PaTu-8988t, ASPC-1, FA-6, and PANC-1 cell lines. Pancreatic cancer samples were obtained from patients, with appropriate patient consent and institutional approval. Primary cells were maintained in Iscove's medium supplemented with 10% bovine calf serum, 100 ng·ml^−1 stem cell factor, and 50 ng·ml^−1 interleukin-3.
The EC50 values were measured with compound FH279.

The nature of the next data set: Log P. The following applies: Table 3.
Where [6] appears, read: Homo sapiens, COLO 205, Table 21.
Where [7] appears, read: Homo sapiens, NCI-H23, Table 21.
Where [8] appears, read: Table 4, TAMH-Bcl-xL cells, read-out: Bcl-xL.

For orientation: Log P means a log measure of how a compound divides between an organic and an aqueous phase. Higher therefore signals higher lipophilicity.

As to `O=C1c2ccccc2C(=O)c2c1n[n+]([O-])n2CCCN1CCN(c2ccccn2)CC1` [Compound 0511], in the data set with Colo205 cells, the tumor growth entry is “effective in inhibiting tumor growth”.

Turning to `Oc1c(Br)cc(Cl)cc1/C=N/Nc1ccc(C(F)(F)F)cn1` [FH096], the EC50 was 4.2 µM in data set [1] (Homo sapiens, Table 21); more than 25 µM in the data set on COLO205, a colonic tumor (setting [6]); 19.1 µM in the data set on HOP-62, NSCLC tumor (Homo sapiens, Table 21); 5.6 µM with H23, NSCLC tumor (setting [7]).

Turning to `O=[N+]([O-])c1cccc(/C=N/Nc2ccccn2)c1O` [Compound 0208], the EC50 in data set [2] (setting [8]) is 4.4 µM; in [3] (Table 4, read-out: Neo), more than 25 µM; in [4], 9.7 µM; in data set [1] (Table 7) it was 3.8 µM; in the data set on COLO205, a colonic tumor (Table 7), 9.2 µM; in the data set with HOP-62, NSCLC tumor (Table 7), 17.5 µM. In addition, the EC50 in the data set on H23, NSCLC tumor (Table 7) is 8.2 µM. Also, the “Neo:Bcl” value in data set [2] (Table 4) came to 5.7. Also, the “WT:142L” value in [4] was 2.2.

Take `O=[N+]([O-])c1ccc(O)c(/C=N/Nc2nccc3ccccc23)c1O` [FH314]: the EC50 in [1] (Homo sapiens, Table 21) came out at 3.8 µM; in the data set with COLO205, a colonic tumor (setting [6]) it was 9.2 µM; in the data set with HOP-62, NSCLC tumor (Homo sapiens, Table 21), 17.5 µM; in the data set on H23, NSCLC tumor (setting [7]), 8.2 µM.

As to “2-methoxy antimycin A [Compound 2-MeAA, reference compound]”, the EC50 in data set [2] (setting [8]) stood at 2.5 µM; in data set [3] (Table 4, read-out: Neo), 15.6 µM; in data set [4] it was 10.3 µM; in [1] (Table 7), 3.5 µM; in data set [1] (Table 21), 3.5 µM; in the data set with COLO205, a colonic tumor (Table 7) it was 1.8 µM. For the same molecule, the EC50 is 1.8 µM in the data set with COLO205, a colonic tumor (Table 21); 3.9 µM in the data set with HOP-62, NSCLC tumor (Table 7); 3.9 µM in the data set on HOP-62, NSCLC tumor (Table 21); 2.7 µM in the data set on H23, NSCLC tumor (Table 7); 2.7 µM in the data set with H23, NSCLC tumor (Table 21). The “Neo:Bcl” value in data set [2] (Table 4) amounted to 6.9. The “WT:142L” value in data set [4] came to 4.1.

For `Oc1c(Cl)cc(Cl)cc1/C=N/Nc1ccc(C(F)(F)F)cn1` [Compound 0235], the EC50 in [2] (setting [8]) was 3.9 µM; in data set [3] (Table 4, read-out: Neo), 11 µM; in data set [4], 8.5 µM; in [1] (Table 7), 2.7 µM; with COLO205, a colonic tumor (Table 7), 6.7 µM; with HOP-62, NSCLC tumor (Table 7), 8.3 µM. The same molecule returned an EC50 with H23, NSCLC tumor (Table 7) of 3.7 µM. Moreover, in data set [2] (Table 4), the “Neo:Bcl” value is 2.8. Besides, in [4], the “WT:142L” value came to 2.2.

As for `CN(C)CC[C@H](CSc1ccccc1)Nc1ccc(S(=O)(=O)NC(=O)c2ccc(N3CCN(Cc4ccccc4-c4ccc(Cl)cc4)CC3)cc2)cc1[N+](=O)[O-]` [ABT-737, reference compound], the EC50 in data set [1] (Homo sapiens, Table 7) was 17 µM; in the data set on COLO205, a colonic tumor (Homo sapiens, COLO 205, Table 7) it was more than 25 µM; in the data set with COLO205, a colonic tumor (Table 21) it was more than 25 µM; in the data set with HOP-62, NSCLC tumor (Homo sapiens, Table 7), more than 25 µM; in the data set with HOP-62, NSCLC tumor (Table 21), more than 25 µM; with H23, NSCLC tumor (Homo sapiens, NCI-H23, Table 7), more than 25 µM. Also, the EC50 with H23, NSCLC tumor (Table 21) was more than 25 µM.

`Oc1c(Br)cc(Cl)cc1/C=N/Nc1ccc(C(F)(F)F)cn1` [Compound 0239]: the EC50 is 4.3 µM in [2] (setting [8]); 17.2 µM in data set [3] (Table 4, read-out: Neo); 13.3 µM in [4]; 4.2 µM in [1] (Table 7); more than 25 µM with COLO205, a colonic tumor (Table 7); 19.1 µM with HOP-62, NSCLC tumor (Table 7). In addition, in the data set on H23, NSCLC tumor (Table 7), the EC50 is 5.6 µM. In [2] (Table 4), the “Neo:Bcl” value stood at 4. Also, in data set [4], the “WT:142L” value worked out at 3.1.

As to `O=[N+]([O-])c1ccc(SCc2ccccc2)c2nonc12` [Compound 0216], the EC50 is 1.2 µM in data set [2] (Mus musculus, Table 6, TAMH cells overexpressing Bcl-xL (Tabx2s), read-out: 2S EC50); 3.7 µM in [3] (Mus musculus, Table 6, read-out: Neo EC50); less than 10 µM in data set [5]. Also, the “sensitivity to the apoptosis-inducing effects” value in data set [2] (TAMH cells overexpressing Bcl-xL compared to TAMH neo cells, FIG. 2) is given as “more sensitive”.

Consider `Oc1c(Cl)cc(Cl)cc1/C=N/Nc1ccc(C(F)(F)F)cn1` [FH092], for which the EC50 is 2.7 µM in [1] (Homo sapiens, Table 21); 6.7 µM in the data set on COLO205, a colonic tumor (setting [6]); 8.3 µM in the data set on HOP-62, NSCLC tumor (Homo sapiens, Table 21); 3.7 µM with H23, NSCLC tumor (setting [7]).

`COc1cc(O)c(/C=N/Nc2ccccn2)cc1Br` [Compound 0351]: the EC50 was 2.6 µM in data set [2] (Table 3, TAMH cells overexpressing Bcl-xL (Tabx2s), read-out: 2S EC50); more than 25 µM in data set [2] (setting [8]); not below 50 µM in data set [3] (Table 3, read-out: Neo EC50); more than 25 µM in data set [3] (Table 4, read-out: Neo); more than 25 µM in data set [4]. Moreover, in [2] (Table 4), the “Neo:Bcl” value worked out at 1. Further, the “WT:142L” value in data set [4] turned out to be 1. Besides, in “Log P”, the “Log P” value stood at 3.03.

For the molecule `O=[N+]([O-])c1cccc(/C=N/Nc2ccc3ccccc3n2)c1O` [FH297], the EC50 in data set [1] (Homo sapiens, Table 21) was 1.5 µM; in the data set with COLO205, a colonic tumor (setting [6]), 1 µM; in the data set on HOP-62, NSCLC tumor (Homo sapiens, Table 21), 2.7 µM; with H23, NSCLC tumor (setting [7]), 2.8 µM.
